# Molecular target: T1, PolH (Streptomyces aureochromogenes, UniProt J7G018)
# T1 construct: pET28a, N-terminal His6 tag, E. coli; anaerobically purified, reconstituted [4Fe-4S]; motif C225XXXC229XXC232
# Assay: HPLC time course of OAP and […]'-deoxyadenosine
# Format: biochemical
# Settings: 3'-EUMP, sodium dithionite, anaerobic; SAM consumed as co-substrate
# T1 sequence (J7G018 entry or part of it): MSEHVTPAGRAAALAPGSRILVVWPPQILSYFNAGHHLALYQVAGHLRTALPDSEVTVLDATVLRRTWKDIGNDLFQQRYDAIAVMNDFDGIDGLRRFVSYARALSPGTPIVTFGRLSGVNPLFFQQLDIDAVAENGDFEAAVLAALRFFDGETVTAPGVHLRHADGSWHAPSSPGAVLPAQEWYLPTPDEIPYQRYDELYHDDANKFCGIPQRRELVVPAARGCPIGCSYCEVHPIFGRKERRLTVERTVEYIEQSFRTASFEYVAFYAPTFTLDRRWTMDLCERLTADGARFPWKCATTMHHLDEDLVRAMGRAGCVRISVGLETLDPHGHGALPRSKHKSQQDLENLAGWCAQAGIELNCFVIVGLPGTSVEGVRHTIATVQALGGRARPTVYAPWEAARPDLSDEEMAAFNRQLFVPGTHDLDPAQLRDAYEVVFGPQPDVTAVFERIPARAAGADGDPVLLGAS
compound,measurement,value
C[S+](CC[C@H](N)C(=O)O)C[C@H]1O[C@@H](n2cnc3c(N)ncnc32)[C@H](O)[C@@H]1O (stereo partly shown) [SAM],HPLC time course of OAP and 5'-deoxyadenosine,indicating that SAM was being used as a co-substrate

# Reference: paper PMC5365060, “Construction of an octosyl acid backbone catalyzed by a radical S-adenosylmethionine enzyme and a phosphatase in the biosynthesis of high-carbon sugar nucleoside antibiotics” (Chemical Science, 2016)
